Article PMC5382200, “Mapping and Identification of Antifungal Peptides in the Putative Antifungal Protein AfpB from the Filamentous Fungus Penicillium digitatum” (Frontiers in Microbiology, 2017)
Converted amounts (≈) assume the structure as drawn. “Also recorded” adds a separate entry of the source. Where two headings read alike, the source gives them in different places. Positions of bridges follow the written chain, without caps; N, C: chain ends. Residues, ends and D or L forms follow the SMILES beside them. No end group written: not given here.

Legend:
B. cinerea CECT2100 = system: B. cinerea CECT2100
Method: (§1) The fungal strains used in this study are P. digitatum CECT20796, P. chrysogenum Q176, Botrytis cinerea CECT2100, Fusarium oxysporum 4287, and Aspergillus niger CBS 120.49. Fungi were cultured on potato dextrose agar (Difco-BD Diagnostics, Sparks, MD, USA) plates for 7–10 days at 24°C with the exception of F. oxysporum, which was cultured on potato dextrose broth (PDB; Difco-BD Diagnostics) at 28°C for 4 days with shaking. Conidia (mitotic asexual spores) were collected, filtered, and adjusted to the appropriate concentration. For antibacterial assays, the Gram-negative bacterium Escherichia coli JM109 was grown in Luria-Bertani (LB) medium at 37°C with shaking.
(§2) Growth inhibition assays were performed in 96-well microtiter plates (Nunc, Roskilde, Denmark) in a total volume of 100 μL as described previously ([López-García et al., 2002]). […] All samples were prepared in triplicate. Plates were statically incubated for 72 h at the optimal temperature of each microorganism. Growth was determined by measuring the optical density (OD) at 600 nm (OD600) using a Multiskan Spectrum plate spectrophotometer (Thermo Electron Corporation, Vantaa, Finland), and the OD600 mean and SD were calculated. Dose–response curves were generated from measurements after 72 h for fungi, and 48 h for E. coli. These experiments were repeated at least twice.

P. digitatum CECT20796 = system: P. digitatum CECT20796
Method: as §1, §2

A. niger CBS 120.49 = system: A. niger CBS 120.49
Method: as §1, §2

P. chrysogenum Q176 = details: 72 h
Method: as §1, §2

recombinant proteinase K [1] = target: T1, recombinant proteinase K (Parengyodontium album, UniProt P06873); assay: Proteolytic digestion assay with RP-HPLC analysis; assay type: in vitro ADME; details: two replicates; for resistance to degradation by proteinase K (in words): peptide 5 μM in 10 mM MOPS pH 7, 30°C, 0, 1, 2 and 24 h
T1 construct: purchased Roche, Mannheim, Germany
Method: (§3) The proteolytic digestion assays were performed as described ([Ferre et al., 2006]; [López-García et al., 2015]) with minor modifications. Peptides (5 μM) were dissolved in 10 mM MOPS pH 7 and digested with 5 μg/mL of recombinant proteinase K (2 U/mg; Roche, Mannheim, Germany) at 30°C. Aliquots were withdrawn from the reaction mixtures at 0, 1, 2, and 24 h of incubation and immediately heated at 80°C for 10 min to inactivate the enzyme. Two replicates were prepared for each treatment, and the experiments were repeated at least twice.
(§4) Analyses of peptide digests were conducted by RP-HPLC using a Waters system (Waters Corporation, Milford, MA, USA) equipped with a 1525 Binary HPLC pump, a 2996 Photodiode Array Detector, and a 717 plus Autosampler. A Symmetry C18 column (4.6 mm × 150 mm, 5 μm, Waters Corporation) kept at 40°C was operated at a flow rate of 1 mL/min. Peptides were eluted with a linear gradient of solvent B [acetonitrile with 0.1% trifluoroacetic acid (TFA)] in solvent A (water with 0.1% TFA) 0–40% in 20 min and detected at 214 nm.

F. oxysporum 4287 = details: 4287, 72 h
Method: as §1, §2

recombinant proteinase K [2] = target: T1, recombinant proteinase K; details: control peptide; ref López-García et al., 2015; cited from earlier work
Method: To exclude the possibility that increased sensitivity to proteolytic degradation could be the reason for limited antifungal activity, we tested the in vitro stability of the peptides derived from AfpB by incubation with proteinase K at different times and RP-HPLC analysis of the resultant digests.

proteinase K = system: T2, proteinase K; assay: Proteolytic digestion assay with RP-HPLC analysis; assay type: in vitro ADME; details: recombinant proteinase K; proteinase K 5 μg/mL (2 U/mg), peptide 5 μM in 10 mM MOPS pH 7, 30°C, 24 h; RP-HPLC C18 peak area at 214 nm; two replicates; read-out: peptide left after 24 h of treatment
T2 construct: purchased Roche, Mannheim, Germany
Method: as §3, §4

[3] = ref Palicz et al., 2013; cited from earlier work
Excerpt: (§5) There is an urgent need to develop new antifungal molecules with properties and mechanisms of action different from existing ones ([Brown et al., 2012]; [Fisher et al., 2012]). […] A remarkable group of AMPs are the antifungal proteins (AFPs) of fungal origin. AFPs belong to the broad class of defensins and are p ...

mammalian cells = details: ref Marx et al., 2008; cited from earlier work
Excerpt: as §5

[4] = B. cinerea CECT2100, 2.5 × 10^4 conidia/mL in 1/20 diluted PDB with 0.01% chloramphenicol, 72 h, OD600, triplicate
[5] = proteinase K 5 μg/mL, RP-HPLC peak area at 214 nm

T1 sequence (P06873 106-384): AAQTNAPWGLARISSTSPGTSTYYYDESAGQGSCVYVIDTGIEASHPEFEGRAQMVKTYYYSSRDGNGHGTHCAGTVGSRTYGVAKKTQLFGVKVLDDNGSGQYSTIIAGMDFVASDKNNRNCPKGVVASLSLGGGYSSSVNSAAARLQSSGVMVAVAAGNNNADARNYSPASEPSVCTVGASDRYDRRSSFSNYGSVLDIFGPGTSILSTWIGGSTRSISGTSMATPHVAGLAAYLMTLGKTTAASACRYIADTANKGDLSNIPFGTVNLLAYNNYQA

| Compound | Minimum inhibitory concentration (MIC) (B. cinerea CECT2100; [4]) [µM] | Minimum inhibitory concentration (MIC) (P. digitatum CECT20796; CECT20796, 72 h) [µM] | resistance to degradation by proteinase K (in words) (recombinant proteinase K [1]; [5]) | Minimum inhibitory concentration (MIC) (A. niger CBS 120.49; CBS 120.49, 72 h) [µM] | Minimum inhibitory concentration (MIC) (P. chrysogenum Q176) [µM] | also measured |
| --- | --- | --- | --- | --- | --- | --- |
| C[C@@H]1NC(=O)[C@H](CCCCN)NC(=O)[C@H](CCCCN)NC(=O)[C@H](CC(N)=O)NC(=O)[C@H](CC(=O)O)NC(=O)[C@H](Cc2ccccc2)NC(=O)[C@H](CCCCN)NC(=O)[C@@H]2CCCN2C(=O)[C@@H](NC(=O)[C@@H](N)CCCCN)CSSC[C@@H](C(=O)N[C@H](C(=O)O)[C@@H](C)O)NC(=O)[C@H](CCCCN)NC(=O)[C@H](CC(N)=O)NC(=O)[C@H](CC(N)=O)NC(=O)[C@H](CC(=O)O)NC(=O)[C@H](CCCCN)NC(=O)[C@H]([C@@H](C)O)NC1=O [PAF116] (H-KCPKFDNKKATKDNNKCT-OH; disulfide 2-17) | 16 (≈ 33.3 µg/mL) | 32 (≈ 66.6 µg/mL) | – | – | – | – |
| NAGSAANKRAKSDRHHAE [PAF113] | 128 | – | high sensitivity | – | – | Minimum inhibitory concentration (MIC) (A. niger CBS 120.49; A. niger CBS 120.49, 2.5 × 10^4 conidia/mL in 1/20 diluted PDB with 0.01% chloramphenicol, 72 h, OD600, triplicate): >128 µM; Minimum inhibitory concentration (MIC) (P. chrysogenum Q176; P. chrysogenum Q176, 2.5 × 10^4 conidia/mL in 1/20 diluted PDB with 0.01% chloramphenicol, OD600, triplicate): >128 µM; Minimum inhibitory concentration (MIC) (P. digitatum CECT20796; P. digitatum CECT20796, 2.5 × 10^4 conidia/mL in 1/20 diluted PDB with 0.01% chloramphenicol, 72 h, 24°C, OD600, triplicate, repeated at least twice, concentration that completely inhibited growth in all experiments): 64 µM; degradation after 1 h of treatment (recombinant proteinase K [1]; proteinase K 5 μg/mL, peptide 5 μM in 10 mM MOPS pH 7, 30°C, 1 h, RP-HPLC peak area at 214 nm): completely degraded |
| RKKWFW [PAF26, reference compound] | – | 8 | – | 8 | 16 | Minimum inhibitory concentration (MIC) (B. cinerea CECT2100; CECT2100, 72 h): 8 µM; Minimum inhibitory concentration (MIC) (F. oxysporum 4287): 16 µM; resistance to protease degradation (recombinant proteinase K [2]): highly resistant |
| CC(C)C[C@@H]1NC(=O)[C@H](CO)NC(=O)[C@@H](NC(=O)[C@H](CCC(N)=O)NC(=O)CN)CSSC[C@@H](C(=O)N[C@H](C(=O)O)[C@@H](C)O)NC(=O)[C@H]([C@@H](C)O)NC(=O)[C@H](CC(N)=O)NC(=O)[C@H](Cc2c[nH]cn2)NC(=O)[C@H](CCCCN)NC1=O [PAF109] (H-GQCSLKHNTCT-OH; disulfide 3-10) | – | – | remarkably resistant; also recorded: extremely stable | – | – | – |
| CC(C)[C@@H]1NC(=O)[C@H](CCCNC(=N)N)NC(=O)[C@H](CCCNC(=N)N)NC(=O)[C@H](Cc2c[nH]cn2)NC(=O)[C@H](Cc2c[nH]cn2)NC(=O)[C@H](CCC(=O)O)NC(=O)[C@H](CC(=O)O)NC(=O)[C@H](Cc2ccc(O)cc2)NC(=O)[C@H](CCC(=O)O)NC(=O)[C@@H](NC(=O)[C@@H](N)Cc2c[nH]cn2)CSSC[C@@H](C(=O)N[C@@H](CCC(N)=O)C(=O)O)NC(=O)[C@H](CC(=O)O)NC1=O [PAF119] (H-HCEYDEHHRRVDCQ-OH; disulfide 2-13) | – | – | remarkably resistant; also recorded: extremely stable | – | – | – |
| C[C@@H]1NC(=O)[C@H](C)NC(=O)[C@H](CO)NC(=O)CNC(=O)[C@@H](NC(=O)[C@@H](N)CC(N)=O)CSSC[C@@H](C(=O)N[C@@H](CCC(=O)O)C(=O)O)NC(=O)[C@H](Cc2c[nH]cn2)NC(=O)[C@H](Cc2c[nH]cn2)NC(=O)[C@H](CCCNC(=N)N)NC(=O)[C@H](CC(=O)O)NC(=O)[C@H](CO)NC(=O)[C@H](CCCCN)NC(=O)[C@H](C)NC(=O)[C@H](CCCNC(=N)N)NC(=O)[C@H](CCCCN)NC(=O)[C@H](CC(N)=O)NC1=O [PAF112] (H-NCGSAANKRAKSDRHHCE-OH; disulfide 2-17) | 128 (≈ 254 µg/mL) | 64 (≈ 127 µg/mL) | – | >128 | >128 | remaining at 24 h, 5 μM (proteinase K): ~20% |
| AKYTGKCTKSKNECKYKNDAGKDTFIKCPKFDNKKCTKDNNKCTVDTYNNAVDCD (disulfide 7-36, 14-43, 28-54) [PAF protein] | – | – | – | – | – | toxicity in vivo [3]: non-toxic; toxicity to mammalian cells in vitro (mammalian cells): non-toxic |
| CC[C@H](C)[C@@H]1NC(=O)[C@H](C(C)C)NC(=O)[C@H](CC(N)=O)NC(=O)[C@H](CCCNC(=N)N)NC(=O)CNC(=O)CNC(=O)[C@H](CCCCN)NC(=O)[C@H](CC(C)C)NC(=O)[C@H](Cc2ccc(O)cc2)NC(=O)[C@H]([C@@H](C)O)NC(=O)[C@@H](NC(=O)[C@@H](NC(=O)[C@@H](N)CC(N)=O)[C@@H](C)O)CSSC[C@@H](C(=O)NCC(=O)O)NC(=O)[C@H](CC(N)=O)NC(=O)[C@H](C(C)C)NC1=O [PAF118] (H-NTCTYLKGGRNVIVNCG-OH; disulfide 3-16) | 64 (≈ 116 µg/mL) | 64 (≈ 116 µg/mL) | – | >128 | >128 | peptide left after 24 h of treatment (recombinant proteinase K [1]; proteinase K 5 μg/mL (2 U/mg), peptide 5 μM in 10 mM MOPS pH 7, 30°C, 24 h, RP-HPLC C18 peak area at 214 nm): around 20%; intact peptide after 1 and 2 h of treatment (recombinant proteinase K [1]; proteinase K 5 μg/mL, peptide 5 μM in 10 mM MOPS pH 7, 30°C, 1 and 2 h, RP-HPLC peak area at 214 nm): severe reduction |
